From BindingDB's records for doi:10.7270/Q2F47MKR (Burnham Center For Chemical Genomics, 2010)

Assay: GPR35 antagonists, SAR follow-up, imaging, image-based, set 2 (AID 2480)
Conditions: not given

| Compound | IC50 [µM] |
| --- | --- |
| Cc1nc(N2CCC(C)CC2)c2c(C)c(C(=O)Nc3ccc4c(c3)OCCO4)sc2n1 [N-(2,3-dihydro-1,4-benzodioxin-6-yl)-2,5-dimethyl-4-(4-methyl-1-piperidinyl)-6-thieno[2,3-d]pyrimidinecarboxamide] | 1.88 |
| Cn1cc(/C=C/c2cc[n+](C)cc2)c2cc(Cl)ccc21 [5-chloranyl-1-methyl-3-[(E)-2-(1-methylpyridin-1-ium-4-yl)ethenyl]indole;hydroiodide] | 5.17 |
| CCC(Sc1nc2ccsc2c(=O)n1Cc1ccc(C(=O)O)cc1)C(=O)Nc1ccc(C)c(Cl)c1 (stereo not drawn) | > 32 |
| Clc1ccccc1Cn1ncc2c(N3CCN(c4ccccc4)CC3)ncnc21 | > 32 |
| O=C(CCCN1C(=O)S/C(=C/C=C/c2ccccc2)C1=O)Nc1ccc(C(=O)O)cc1 [4-[4-[(5E)-2,4-dioxo-5-[(E)-3-phenylprop-2-enylidene]-1,3-thiazolidin-3-yl]butanoylamino]benzoic acid] | 1.17 |
| O=C(CCCN1C(=O)S/C(=C/c2ccccc2)C1=S)Nc1ccc(C(=O)O)cc1 [MLS001167691] | 1.6 |
| C=CCn1c(C)c(/C=C/c2cc[n+](C)cc2)c2ccccc21 [2-methyl-3-[(E)-2-(1-methyl-4-pyridin-1-iumyl)ethenyl]-1-prop-2-enylindole;iodide] | 4.99 |
| O=C(CCCN1C(=O)/C(=C/c2ccc3c(c2)OCO3)SC1=S)Nc1ccc(C(=O)O)c(O)c1 [4-[[4-[(5Z)-5-(1,3-benzodioxol-5-ylmethylidene)-4-oxo-2-sulfanylidene-3-thiazolidinyl]-1-oxobutyl]amino]-2-hydroxybenzoic acid] | 0.3 |
| Fc1ccc(N2CCN(c3ncnc4c3cnn4Cc3ccc(Cl)cc3Cl)CC2)cc1 [MLS-0435440.0001] | > 32 |
| O=C(CCCN1C(=O)S/C(=C\C=C\c2ccccc2)C1=O)Nc1ccc(C(=O)O)cc1 [MLS000948015] | 1.17 |
| COc1ccc(/C=C2\SC(=S)N(CCCC(=O)Nc3ccc(O)cc3)C2=O)cc1 [MLS-0304362.0001] | 1.16 |
| COc1ccc(Cn2c(SCC(=O)Nc3ccc(C)c(C)c3)nc3ccsc3c2=O)cc1 | > 32 |
| O=C(CCCN1C(=O)/C(=C/c2ccc3c(c2)OCO3)SC1=S)Nc1cccc(C(=O)O)c1 [3-[[4-[(5Z)-5-(1,3-benzodioxol-5-ylmethylidene)-4-oxo-2-sulfanylidene-3-thiazolidinyl]-1-oxobutyl]amino]benzoic acid] | 0.983 |
| Clc1ccc(Cn2ncc3c(N4CCN(c5cccc(Cl)c5)CC4)ncnc32)cc1 [1-[(4-chlorophenyl)methyl]-4-[4-(3-chlorophenyl)piperazin-1-yl]pyrazolo[3,4-d]pyrimidine] | > 32 |
| O=C(CCCN1C(=O)/C(=C/c2ccc3c(c2)OCO3)SC1=S)Nc1ccc(C(=O)O)cc1 [SMR000664854] | 1.18 |
| Cc1c(C(=O)Nc2ccc3c(c2)OCCO3)sc2ncnc(N3CCCCC3C)c12 (stereo not drawn) [MLS-0359029.0001] | > 32 |
| CC(C)c1ccc(NC(=O)CSc2nc3ccsc3c(=O)n2Cc2ccc(C(=O)O)cc2)cc1 [4-[[4-oxo-2-[2-oxo-2-(4-propan-2-ylanilino)ethyl]sulfanylthieno[3,2-d]pyrimidin-3-yl]methyl]benzoic acid] | 1.33 |
| O=C(CCCN1C(=O)/C(=C/c2ccccc2)SC1=S)Nc1ccc(O)cc1 [N-(4-hydroxyphenyl)-4-[(5Z)-4-oxo-5-(phenylmethylene)-2-sulfanylidene-3-thiazolidinyl]butanamide] | 8.71 |
| c1ccc(-c2n[n+](-c3ccccc3)c(-c3ccccc3)s2)cc1 | > 32 |
| CCC(Sc1nc2ccsc2c(=O)n1Cc1ccc(C(=O)O)cc1)C(=O)Nc1ccc(Cl)cc1 (stereo not drawn) [MLS-0435427.0001] | > 32 |

Same assay, conditions: inactive by the depositor's call

| Compound | IC50 [µM] |
| --- | --- |
| O=C(CCCN1C(=O)/C(=C\c2ccccc2)SC1=S)Nc1ccc(O)cc1 [N-(4-hydroxyphenyl)-4-[(5E)-4-oxidanylidene-5-(phenylmethylidene)-2-sulfanylidene-1,3-thiazolidin-3-yl]butanamide] | 11.8 |
| Cc1ccc(Cn2ncc3c(N4CCN(c5ccc(C)cc5)CC4)ncnc32)cc1 | 17.7 |
| O=C(CCCN1C(=O)/C(=C/c2cccs2)SC1=S)Nc1ccc(O)cc1 | 10.7 |
